Assay results reported in EP0810207A1, “Bis-ortho-substituted benzoylguanidines, process for their preparation, their use as medicament or diagnostic agent and medicaments containing them” (HOECHST AKTIENGESELLSCHAFT, priority 1996, dated 1997).
Counter-ions that a name gives are not always drawn.

Target: T1, Na^+/H^+-Exchangers von Kaninchenerythrocyten (Oryctolagus cuniculus, UniProt P23791)
T1 construct: den Na^+-Influx in die Erythrocyten via Na^+/H^+-Austausch flammenphotometrisch bestimmen zu können; from tissue; host or cells: Erythrocytes from ear-artery blood of cholesterol-fed New Zealand White rabbits
T1 sequence (P23791 whole entry): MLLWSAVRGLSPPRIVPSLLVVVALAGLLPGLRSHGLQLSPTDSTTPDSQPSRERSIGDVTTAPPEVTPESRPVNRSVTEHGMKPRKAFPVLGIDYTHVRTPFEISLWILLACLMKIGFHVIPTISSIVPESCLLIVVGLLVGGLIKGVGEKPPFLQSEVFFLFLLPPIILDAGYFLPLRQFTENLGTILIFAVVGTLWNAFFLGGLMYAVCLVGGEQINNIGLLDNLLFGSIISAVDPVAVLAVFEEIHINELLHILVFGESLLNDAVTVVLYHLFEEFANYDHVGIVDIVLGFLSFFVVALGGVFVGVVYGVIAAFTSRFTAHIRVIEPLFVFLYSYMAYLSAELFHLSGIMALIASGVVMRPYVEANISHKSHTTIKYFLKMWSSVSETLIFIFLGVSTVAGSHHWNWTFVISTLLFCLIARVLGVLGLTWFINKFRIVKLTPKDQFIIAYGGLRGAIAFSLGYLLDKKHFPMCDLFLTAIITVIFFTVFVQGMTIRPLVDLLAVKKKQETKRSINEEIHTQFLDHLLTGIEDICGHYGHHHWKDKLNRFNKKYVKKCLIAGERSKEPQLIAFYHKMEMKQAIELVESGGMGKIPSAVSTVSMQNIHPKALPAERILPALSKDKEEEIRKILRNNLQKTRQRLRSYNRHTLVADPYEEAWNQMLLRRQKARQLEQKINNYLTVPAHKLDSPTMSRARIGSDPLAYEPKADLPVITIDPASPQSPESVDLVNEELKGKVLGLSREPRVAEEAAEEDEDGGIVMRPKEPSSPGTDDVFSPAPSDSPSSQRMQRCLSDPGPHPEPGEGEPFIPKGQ
Experiment: Inhibition of the Na+/H+ exchanger of rabbit erythrocytes (amiloride-sensitive sodium influx, flame photometry)
Format: cell-based, Kaninchen
Details: hyperosmolar salt-sucrose medium, pH 7,4, 37°C, read-out: IC50 Inhibition des Na^+/H^+-Exchangers
From the text: Inhibition des Na^+/H^+-Exchangers von Kaninchenerythrocyten Weiße Neuseeland-Kaninchen (Ivanovas) erhielten eine Standard-Diät mit 2% Cholesterin für sechs Wochen, um den Na^+/H^+-Austausch zu aktivieren und so den Na^+-Influx in die Erythrocyten via Na^+/H^+-Austausch flammenphotometrisch bestimmen zu können. Das Blut wurde den Ohrarterien entnommen und durch 25 IE Kalium-Heparin ungerinnbar gemacht. Ein Teil jeder Probe wurde zur Doppelbestimmung des Hämatokrits durch Zentrifugieren benutzt. Aliquots von jeweils 100 µl dienten zur Messung des Na^+-Ausgangsgehalts der Erythrocyten.
Um den Amilorid-sensitiven Natrium-Influx zu bestimmen, wurden 100 µl jeder Blutprobe in jeweils 5 ml eines hyperosmolaren Salz-Sucrose-Mediums (mmol/l: 140 NaCl, 3 KCl, 150 Sucrose, 0,1 Ouabain, 20 Tris-hydroxymethylaminomethan) bei pH 7,4 und 37°C inkubiert. Die Erythrocyten wurden danach dreimal mit eiskalter MgCl2-Ouabain-Lösung (mmol/l: 112 MgCl2, 0,1 Ouabain) gewaschen und in 2,0 ml destilliertem Wasser hämolysiert. Der intrazelluläre Natriumgehalt wurde flammenphotometrisch bestimmt.
Der Na^+-Nettoinflux wurde aus der Differenz zwischen Natrium-Ausgangswerten und dem Natriumgehalt der Erythrocyten nach Inkubation errechnet. Der Amilorid-hemmbare Natrium-Influx ergab sich aus der Differenz des Natriumgehalts der Erythrocyten nach Inkubation mit und ohne Amilorid 3 x 10^-4 mol/l. Auf diese Weise wurde auch bei den erfindungsgemäßen Verbindungen verfahren.

IC50 | Compound
10 µM | N=C(N)NC(=O)c1c(Cl)cccc1Cl [Beispiel 1, 2,6-Dichlor-benzoylguanidin-hydrochlorid]
8.5 µM | COc1ccc(Cl)c(OC)c1C(=O)N=C(N)N [Beispiel 2, 3-Chlor-2,6-dimethoxy-benzoylguanidin-hydrochlorid]
0.3 µM | NC(N)=NC(=O)c1c(F)c(F)c(O)c(F)c1F [Beispiel 3, 4-Hydroxy-2,3,5,6-tetrafluor-benzoylguanidin-hydrochlorid]
> 10 µM | NC(N)=NC(=O)c1c(F)cccc1F [Beispiel 4, 2,6-Difluor-benzoylguanidin-hydrochlorid]
10 µM | NC(N)=NC(=O)c1c(F)cccc1C(F)(F)F [Beispiel 5, 2-Fluor-6-trifluormethyl-benzoylguanidin-hydrochlorid]
> 10 µM | COc1ccc(C(F)(F)F)c(OC)c1C(=O)N=C(N)N [Beispiel 6, 3-Trifluormethyl-2,6-dimethoxy-benzoylguanidin-hydrochlorid]
